Data set [1] concerns the target T1, recombinant human plasminogen activator inhibitor-1 (PAI-1) (Homo sapiens, UniProt P05121).
T1 construct: purchased Molecular Innovations, Royal Oak, Mich
In words: Screening for PAI-1 inhibition (chromogenic tPA activity assay, Spectrozyme-tPA). The data set is classed as biochemical. The conditions noted are these: for pIC50: footnote b: IC50 determined by a modification of the Primary Screen for PAI-1 Inhibition. The procedure:
Screening for PAI-1 inhibition. Test compounds are dissolved in DMSO at a final concentration of 10 mM, then diluted 100×in physiologic buffer. The inhibitory assay is initiated by the addition of the test compound (1-100 μM final concentration, maximum DMSO concentration of 0.2%) in a pH 6.6 buffer containing 140 nM recombinant human plasminogen activator inhibitor-1 (PAI-1; Molecular Innovations, Royal Oak, Mich.). Following a 1 hour incubation at room temperature, 70 nM of recombinant human tissue plasminogen activator (tPA) is added, and the combination of the test compound, PAI-1 and tPA is incubated for an additional 30 minutes. Following the second incubation, Spectrozyme-tPA (American Diagnostica, Greenwich, Conn.), a chromogenic substrate for tPA, is added and absorbance read at 405 nm at 0 and 60 minutes. Relative PAI-1 inhibition is equal to the residual tPA activity in the presence of the test compounds and PAI-1. Control treatments include the complete inhibition of tPA by PAI-1 at the molar ratio employed (2:1), and the absence of any effect of the test compound on tPA alone.

The mark [2] stands for this setting: PAI-1 inhibition at 25 μM test compound, pH 6.6 buffer, 140 nM PAI-1, 70 nM tPA.

pIC50: −log10 of the molar value.

T1 sequence (P05121 24-402): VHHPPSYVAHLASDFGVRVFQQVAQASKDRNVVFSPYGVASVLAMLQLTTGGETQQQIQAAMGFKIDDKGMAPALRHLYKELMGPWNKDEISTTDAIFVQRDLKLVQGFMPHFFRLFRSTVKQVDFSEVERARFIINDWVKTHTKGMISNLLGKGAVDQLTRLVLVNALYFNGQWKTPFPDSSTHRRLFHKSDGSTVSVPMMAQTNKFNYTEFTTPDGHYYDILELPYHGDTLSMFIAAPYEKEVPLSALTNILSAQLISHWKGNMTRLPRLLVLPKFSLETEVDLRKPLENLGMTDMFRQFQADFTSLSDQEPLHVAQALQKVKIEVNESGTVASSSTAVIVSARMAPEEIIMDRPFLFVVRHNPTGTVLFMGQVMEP

Compound `CC(C)(C)c1ccc(/C=N/OCCCOc2ccc(C(=O)O)c(NC(=O)/C=C/c3ccc(-c4ccccc4)cc3)c2)cc1` [Compound 35, 2-{[(2E)-3-(1,1′-Biphenyl-4-yl)prop-2-enoyl]amino}-4-[3-({[(1E)-(4-tert-butylphenyl)methylidene]amino}oxy)propoxy]-benzoic Acid] returned a melting point of 169 to 171 °C. For the same compound, the inhibition at 25 µM in data set [1] (setting [2]) came out at 16%.

In turn, `CC(C)(C)c1ccc(/C=N/OCCOc2ccc(C(=O)O)c(OC(=O)c3ccccc3)c2)cc1` [Compound 11, 2-(Benzoyloxy)-4-{2-[({(E)-[4-(tert-butyl)phenyl]methylidene}amino)oxy]ethoxy}benzoic Acid] came in with a melting point of 129.3 to 130.6 °C. Also, in data set [1], the pIC50 was 5.08.

As for `CC(C)(C)c1ccc(C=NOCCCOc2ccc(Cc3nnn[nH]3)cc2)cc1` [Compound 17, 4-(tert-Butyl)benzaldehyde 0-{3-[4-(1H-tetraazol-5-ylmethyl)-phenoxy]-propyl}oxime], the “% Inhibition @ 25 μM” value in data set [1] (setting [2]) was 35%.

Take `CC(C)(C)c1ccc(/C=N/OCCOc2ccc(C(=O)O)c(OC(=O)c3ccc(C(F)(F)F)cc3)c2)cc1` [Compound 8, 4-{2-[({(E)-[4-(tert-Butyl)phenyl]methylidene}amino)oxy]ethoxy}-2-{[4-(trifluoromethyl)benzoyl]oxy}benzoic Acid]: the melting point was 146.3 to 147.9 °C. The inhibition at 25 µM in data set [1] (setting [2]) was 1%.

As for `COc1ccc(C(=O)Oc2cc(OCCO/N=C/c3ccc(C(C)(C)C)cc3)ccc2C(=O)O)cc1` [Compound 9, 4-{2-[({(E)-[4-(tert-Butyl)phenyl]methylidene}amino)oxy]ethoxy}-2-[(4-methoxybenzoyl)oxy]benzoic Acid], the melting point lay within 115.5 to 117.5 °C. Besides, the pIC50 in data set [1] was 4.59.

The compound `CC(C)(C)c1ccc(/C=N/OCCCOc2ccc(C(=O)O)c(NC(=O)c3ccc4ccccc4c3)c2)cc1` [Compound 34, 4-[3-({[(1E)-(4-tert-Butylphenyl)methylidene]amino}oxy)propoxy]-2-(2-naphthoylamino)benzoic Acid] displayed a melting point of 156 to 158 °C. Further, in data set [1] (setting [2]), the inhibition at 25 µM came out at 14%.

As for `O=C(Nc1cc(OCCCO/N=C/c2ccc(-c3ccccc3)cc2)ccc1C(=O)O)c1ccc(OC(F)(F)F)cc1` [Compound 29, 4-[3-({[(1E)-1,1′-Biphenyl-4-ylmethylidene]amino}oxy)propoxy]-2-{[4-(trifluoromethoxy)benzoyl]amino}benzoic Acid], the melting point fell in the range of 194.5 to 195.5 °C. For the same compound, in data set [1] (setting [2]), the inhibition at 25 µM was 70%.

Take `O=C(Nc1cc(OCCCO/N=C/c2ccc(-c3ccccc3)cc2)ccc1C(=O)O)c1ccc(C(F)(F)F)cc1` [Compound 20, 4-[3-({[(1E)-1,1′-Biphenyl-4-ylmethylidene]amino}oxy)propoxy]-2-{[4-(trifluoromethyl)benzoyl]amino}benzoic Acid]: the melting point fell in the range of 205.6 to 206.6 °C. For the same compound, in data set [1], the negative-log IC50 (pIC50) is 4.59.

Consider `CC(=NOCc1ccc(CC(=O)O)cc1)c1ccc(C(C)(C)C)cc1` [Compound 2, {4-[1-(4-tert-Butyl-phenyl)-ethylideneaminooxymethyl]-phenyl}-acetic Acid], for which the melting point fell in the range of 148.9 to 150 °C. Besides, the inhibition at 25 µM in data set [1] (setting [2]) came to 30%.

`CC(C)(C)c1ccc(/C=N/OCCCOc2ccc(C(=O)O)c(NC(=O)c3ccc(C(C)(C)C)cc3)c2)cc1` [Compound 18, 2-{[4-(tert-Butyl)benzoyl]amino}-4-{3-[({(E)-[4-(tert-butyl)phenyl]methylidene}amino)oxy]propoxy}benzoic Acid] had a melting point of 192.3 to 193.8 °C. Moreover, in data set [1], the negative logarithm of the IC50 (pIC50) is 4.73.

In the case of `CC(C)(C)c1ccc(C=NOCCOc2ccc(C(=O)O)c(OCc3ccc(C(F)(F)F)cc3)c2)cc1` [Compound 14, 4-{2-[({[4-(tert-Butyl)phenyl]methylidene}amino)oxy]ethoxy}-2-{[4-(trifluoromethyl)benzyl]oxy}benzoic acid], the melting point was in the range of 164.1 to 164.8 °C. The inhibition at 25 µM in data set [1] (setting [2]) stood at 28%.

In turn, `C/C(=N\OCCOc1ccc(C(=O)O)cc1Cl)c1ccc(C(C)(C)C)cc1` [Compound 12, 4-{2-[({(E)-1-[4-(tert-Butyl)phenyl]ethylidene}amino)oxy]-ethoxy}-3-chloro-benzoic Acid] returned a melting point of 167.1 to 168.8 °C. In addition, the negative-log IC50 (pIC50) in data set [1] is 4.95.

Turning to `O=C(Nc1cc(OCCCO/N=C/c2cc(C(F)(F)F)cc(C(F)(F)F)c2)ccc1C(=O)O)c1ccc(OC(F)(F)F)cc1` [Compound 28, 4-{3-[({(1E)-[3,5-Bis (trifluoromethyl)phenyl]methylidene}amino)oxy]propoxy}-2-{[4-(trifluoromethoxy)benzoyl]amino}benzoic Acid], the melting point lay in the range of 184.5 to 185.5 °C. In data set [1] (setting [2]), the inhibition at 25 µM turned out to be 51%.

For the compound `CC(C)(C)c1ccc(C=NOCCOc2ccc(C(=O)O)c(O)c2)cc1` [Compound 7, 4-{2-[({[4-(tert-Butyl)phenyl]methylidene}amino)oxy]ethoxy}-2-hydroxybenzoic Acid], the melting point lay in the range of 161.4 to 162.7 °C. Besides, the inhibition at 25 µM in data set [1] (setting [2]) is 33%.

As for `CC(C)(C)c1ccc(/C=N/OCCCOc2ccc(C(=O)O)c(NC(=O)c3ccc(-c4ccccc4)cc3)c2)cc1` [Compound 36, 2-[(1,1′-Biphenyl-4-ylcarbonyl)amino]-4-[3-({[(1E)-(4-tert-butylphenyl)methylidene]amino}oxy)propoxy]benzoic Acid], the melting point is 155 to 158.5 °C. Further, in data set [1] (setting [2]), the inhibition at 25 µM amounted to 23%.

With `O=C(O)c1ccc(OCCCO/N=C/c2ccc(-c3ccccc3)cc2)cc1NC(=O)c1ccccc1C(F)(F)F` [Compound 26, 4-[3-({[(1E)-1,1′-biphenyl-4-ylmethylidene]amino}oxy)propoxy]-2-{[2-(trifluoromethyl)benzoyl]amino}benzoic Acid], the melting point was in the range of 170.5 to 172.5 °C. The inhibition at 25 µM in data set [1] (setting [2]) was 24%.

On to `C/C(=N\OCCOc1ccc(C(=O)O)c(Cl)c1)c1ccc(C(C)(C)C)cc1` [Compound 13, 4-{2-[({(E)-1-[4-(tert-Butyl)phenyl]ethylidene}amino)oxy]-ethoxy}-2-chloro-benzoic Acid], for which the melting point lay within 142.7 to 143.9 °C. Moreover, the inhibition at 25 µM in data set [1] (setting [2]) was 34%.

`C/C(=N\OCCCOc1ccc(C(=O)O)c(NC(=O)c2ccc(C(F)(F)F)cc2)c1)c1ccccc1` [Compound 23, 4-[3-({[(1E)-1-Phenylethylidene]amino}oxy)propoxy]-2-{[4-(trifluoromethyl)benzoyl]amino}benzoic acid] came in with a melting point of 174.3 to 175.7 °C. The inhibition at 25 µM in data set [1] (setting [2]) was 26%.

`CC(C)(C)c1ccc(C=NOCc2ccc(CC(=O)O)cc2)cc1` [Compound 3, [4-(4-tert-Butyl-benzylideneaminooxymethyl]-phenyl}-acetic Acid]: the melting point was in the range of 93.3 to 96.2 °C. Moreover, the inhibition at 25 µM in data set [1] (setting [2]) worked out at 19%.

Compound `CC(=NOCCCOc1ccc(CC(=O)O)cc1)c1ccc(C(C)(C)C)cc1` [Compound 1, (4-{3-[1-(4-tert-Butyl-phenyl)-ethylideneaminooxy]-propoxy}-phenyl)-acetic Acid] showed a melting point of 98.7 to 99.7 °C. The inhibition at 25 µM in data set [1] (setting [2]) was 39%.

In turn, `C/C(=N\OCCOc1ccc(C(=O)O)c(O)c1)c1ccc(C(C)(C)C)cc1` [Compound 5, 4-{2-[({(E)-1-[4-(tert-Butyl)-phenyl]-ethylidene}amino)oxy]-ethoxy}-2-hydroxy-benzoic Acid] displayed a melting point of 157.4 to 158.7 °C. In addition, the negative-log IC50 (pIC50) in data set [1] is 4.69.

Compound `CC(C)(C)c1ccc(/C=N/OCCCOc2ccc(CCC(=O)O)cc2)cc1` [Compound 16, 3-(4-{3-[({(E)-[4-(tert-butyl)phenyl]methylidene}amino)oxy]propoxy}phenyl)propanoic Acid] displayed a melting point of 101.2 to 102.1 °C. Also, the inhibition at 25 µM in data set [1] (setting [2]) came out at 42%.

As usually defined, the inhibition is the drop in the measured response relative to a control, in per cent. For orientation: melting point means the temperature of the solid-liquid transition. What is called pIC50 is the negative decadic logarithm of the IC50, by convention in mol/L.
